Measurements taken from patent publication US9357779B2 (priority 2010, dated 2016).

Experiments:
[1] = physchem
Description: (§1) Calibration was carried out using unbranched alkan-2-ones (having from 3 to 16 carbon atoms) with known log P values (the log P values were determined by the retention times using linear interpolation between two successive alkanones).

[2] = tested on: Phytophthora infestans; type: in vivo; conditions: tomato plants, protective, active compound concentration 500 ppm, evaluation 7 days after inoculation
[3] = tested on: Plasmopara viticola; test: Plasmopara test (grapevine)/protective; type: in vivo; conditions: protective, active compound concentration 500 ppm, evaluation 6 days after inoculation
Description: Plasmopara Test (Grapevine)/Protective
To produce a suitable preparation of active compound, 1 part by weight of active compound is mixed with the stated amounts of solvent and emulsifier, and the concentrate is diluted with water to the desired concentration.
To test for protective activity, young plants are sprayed with the preparation of active compound at the stated application rate. After the spray coating has dried on, the plants are inoculated with an aqueous spore suspension of Plasmopara viticola and then remain in an incubation cabin at about 20° C. and 100% relative atmospheric humidity for 1 day. The plants are then placed in a greenhouse at about 21° C. and about 90% atmospheric humidity for 4 days. The plants are then moistened and placed in an incubation cabin for 1 day.
Evaluation is carried out 6 days after the inoculation. 0% means an efficacy which corresponds to that of the control, whereas an efficacy of 100% means that no infection is observed.

[4] = acidic range, pH 2.7, 0.1% aqueous formic acid/acetonitrile
Description: as §1

[5] = pH 2.7, log P [a], acidic range, pH 2.7, 0.1% aqueous formic acid/acetonitrile

SMILES | chromatographic logP [1, 5] | efficacy [2] [%] | efficacy [3] [%] | log P [a] [4] | chromatographic logP ([1]; pH 7.8) | chromatographic logP ([1]; pH 2.7)
O=C(/C=C/c1csc(C2CCN(C(=O)Cn3nc(C(F)F)cc3C(F)F)CC2)n1)c1c(F)cccc1F [Compound I-22, (2E)-3-[2-(1-{[3,5-Bis(difluoromethyl)-1H-pyrazol-1-yl]acetyl}piperidin-4-yl)-1,3-thiazol-4-yl]-1-(2,6-difluorophenyl)prop-2-en-1-one] | 3.35 | 100 | 100 |  |  | 
O=C(/C=C/c1csc(C2CCN(C(=O)Cn3nc(C(F)F)cc3C(F)F)CC2)n1)c1ccccc1Cl [Compound I-42] |  | 100 | 90 | 3.51^[a] |  | 
O=C(/C=C/c1csc(C2CCN(C(=O)Cn3nc(C(F)F)cc3C(F)F)CC2)n1)c1c(Cl)cccc1Cl [Compound I-43] |  | 90 | 100 | 3.7^[a] |  | 
Cc1ccccc1C(=O)/C=C/c1csc(C2CCN(C(=O)Cn3nc(C(F)F)cc3C(F)F)CC2)n1 [Compound I-45] |  | 95 | 100 | 3.56^[a] |  | 
O=C(/C=C/c1csc(C2CCN(C(=O)Cn3nc(C(F)F)cc3C(F)F)CC2)n1)c1c(F)cccc1Cl [Compound I-36] |  | 100 | 96 | 3.54^[a]; |  | 
O=C(/C=C/c1csc(C2CCN(C(=O)Cn3nc(C(F)F)cc3C(F)F)CC2)n1)C1CCCCC1 [Compound I-44] |  | 95 | 74 | 3.89^[a] |  | 
O=C(CC1CCCCC1)c1csc(C2CCN(C(=O)Nc3cc(C(F)F)ccc3C(F)F)CC2)n1 [Compound I-30] |  | 95 | 85 | 4.3^[a]; |  | 
O=C(/C=C/c1csc(C2CCN(C(=O)Cn3nc(C(F)F)cc3C(F)F)CC2)n1)C1CCCC1 [Compound I-49] |  | 90 | 79 | 3.52^[a] |  | 
O=C(/C=C/c1csc(C2CCN(C(=O)Cn3nc(C(F)F)cc3C(F)F)CC2)n1)c1ccc(F)cc1Br [Compound I-34] |  | 95 | 84 | 3.7^[a]; |  | 
O=C(/C=C/c1csc(C2CCN(C(=O)Cn3nc(C(F)F)cc3C(F)F)CC2)n1)c1cccc2ccccc12 [Compound I-46] |  | 95 | 100 | 2.84^[a] |  | 
O=C(/C=C/c1csc(C2CCN(C(=O)Cn3nc(C(F)F)cc3C(F)F)CC2)n1)c1ccccc1I [Compound I-33] |  | 95 | 89 | 3.65^[a]; |  | 
O=C(/C=C/c1csc(C2CCN(C(=O)Cn3nc(C(F)F)cc3C(F)F)CC2)n1)c1cc(F)ccc1Cl [Compound I-35] |  | 95 | 89 | 3.64^[a]; |  | 
O=C(/C=C/c1csc(C2CCN(C(=O)Cn3nc(C(F)F)cc3C(F)F)CC2)n1)c1c(F)cc(F)cc1F [Compound I-57] |  | 98 | 91 | 3.51^[a]; |  | 
Cc1ccc(Cl)cc1NC(=O)N1CCC(c2nc(C(=O)CC3CCCCC3)cs2)CC1 [Compound I-25, N-(5-Chloro-2-methylphenyl)-4-[4-(cyclohexylacetyl)-1,3-thiazol-2-yl]piperidine-1-carboxamide] | 4.51 | 100 | 96 |  | 4.55 | 
O=C(CC1CCCCC1)c1csc(C2CCN(C(=S)Cn3nc(C(F)F)cc3C(F)F)CC2)n1 [Compound I-58, 1-[2-(1-{2-[3,5-Bis(difluoromethyl)-1H-pyrazol-1-yl]ethanethioyl}piperidin-4-yl)-1,3-thiazol-4-yl]-2-cyclohexylethanone] | 4.63 |  |  |  | 4.56 | 
Cc1cc(C(F)(F)F)nn1CC(=O)N1CCC(c2nc(C(=O)CCc3ccccc3)cs2)CC1 [Compound I-14, 1-[2-(1-{[5-Methyl-3-(trifluoromethyl)-1H-pyrazol-1-yl]acetyl}piperidin-4-yl)-1,3-thiazol-4-yl]-3-phenylpropan-1-one] | 3.64 |  |  |  |  | 
C#CCOc1ccccc1C(=O)/C=C/c1csc(C2CCN(C(=O)Cn3nc(C(F)F)cc3C(F)F)CC2)n1 [Compound I-55] |  | 98 | 100 | 3.28^[a] |  | 
C#Cc1csc(C2CCN(C(=O)Cn3nc(C(F)(F)F)cc3C)CC2)n1 [XX-1, 1-[4-(4-Ethynyl-1,3-thiazol-2-yl)piperidin-1-yl]-2-[5-methyl-3-(trifluoromethyl)-1H-pyrazol-1-yl]ethanone] |  |  |  |  |  | 2.61
O=C(CCc1ccccc1)c1csc(C2CCNCC2)n1 [II-2, 4-[4-(3-Phenylpropanoyl)-1,3-thiazol-2-yl]piperidinium chloride] |  |  |  |  |  | 1.19
CON=C(CC1CCCCC1)c1csc(C2CCN(C(=O)Cn3nc(C(F)F)cc3C(F)F)CC2)n1 [Compound I-60, 2-[3,5-Bis(difluoromethyl)-1H-pyrazol-1-yl]-1-{4-[4-(2-cyclohexyl-N-methoxyethanimidoyl)-1,3-thiazol-2-yl]piperidin-1-yl}ethanone] | 4.8 | 95 |  |  |  | 
O=C(/C=C/c1csc(C2CCN(C(=O)Cn3nc(C(F)F)cc3C(F)F)CC2)n1)c1ccccc1Br [Compound I-29] |  | 100 | 95 | 3.51^[a]; |  | 
CC(CC(=O)c1c(F)cccc1F)c1csc(C2CCN(C(=O)Cn3nc(C(F)F)cc3C(F)F)CC2)n1 (stereo not drawn) [Compound I-51] |  | 98 | 100 |  |  | 
CC(C)(C)OC(=O)N1CCC(c2nc(C(=O)CC3CCCCC3)cs2)CC1 [IV-1, tert-Butyl 4-[4-(cyclohexylacetyl)-1,3-thiazol-2-yl]piperidine-1-carboxylate] |  |  |  |  |  | 5.43
CC(C)(C)OC(=O)N1CCC(c2nc(/C=C/C(=O)c3c(F)cccc3F)cs2)CC1 [IV-3, tert-Butyl 4-[4-[(1E)-3-(2,6-difluorophenyl)-3-oxoprop-1-en-1-yl]-1,3-thiazol-2-yl]piperidine-1-carboxylate] |  |  |  |  |  | 4.3
O=C(/C=C/c1csc(C2CCN(C(=O)Cn3nc(C(F)F)cc3C(F)F)CC2)n1)c1cccc(F)c1 [Compound I-52] |  | 98 | 94 | 3.35^[a] |  | 
CC(C)(C)OC(=O)N1CCC(c2nc(C(=O)CCc3ccccc3)cs2)CC1 [IV-2, tert-Butyl 4-[4-(3-phenylpropanoyl)-1,3-thiazol-2-yl]piperidine-1-carboxylate] |  |  |  |  |  | 4.54
O=C(CC1CCCCC1)c1csc(C2CCN(C(=O)Cn3nc(C(F)F)cc3C(F)F)CC2)n1 [Compound I-24, 2-[3,5-Bis(difluoromethyl)-1H-pyrazol-1-yl]-1-{4-[4-(cyclohexylacetyl)-1,3-thiazol-2-yl]piperidin-1-yl}ethanone] |  | 94 | 100 |  |  | 
CC1CCCCC1C(=O)C=Cc1csc(C2CCN(C(=O)Cn3nc(C(F)F)cc3C(F)F)CC2)n1 (mixture of isomers) [Compound I-50] |  | 95 | 93 | 4.11^[a] |  | 
